pIC50: −log10 of the molar value.
Columns and labels:
AsPC-1 cells = biological target: T1, AsPC-1 cells (Homo sapiens, UniProt P01116, G12D); assay: Cellular phospho-ERK assay, AsPC-1 cells (KRAS G12D); assay type: cell-based; conditions: 2 hours, read-out: AsPC1 pERK IC50
T1 construct: p-ERK/total ERK AlphaSureFire read-out
Procedure: Procedure for Cellular Phospho-ERK Assay in KRAS Wild Type and Mutant (G12D, G12V) Cell Lines
PANC08.13 cells (ATCC® CRL-2551™), containing homozygous KRAS-G12D activating mutation, were cultured in growth medium made of RPMI1640-GlutaMAX™-I (ThermoFisher Scientific 61870) containing 15% heat inactivated fetal bovine serum (ThermoFisher Scientific 10091148)). AsPC-1 cells (ATCC® CRL-1682™), containing homozygous KRAS-G12D activating mutation, were cultured in T150 flask in growth medium (RPMI medium 1640-GlutaMAX™-I (ThermoFisher Scientific 61870) containing 10% fetal bovine serum (ThermoFisher Scientific 10091148)).
Cells for the assay were harvested in growth medium after TrypLE (ThermoFisher scientific 12604021) digestion and were seeded in a 384-well collagen coated cell culture plate (Corning 356702) at a density of 10,000-15,000 cells/20 μL/well, and incubated at 37° C., 5% CO2 overnight. The compound (with 10 mM stock concentration) dose-response titrations were prepared [30 μM final ERK detection assay concentration and 1:3 dilutions, 10-point dose response] and appropriate amounts (270 nL) of test compounds were dispensed in a 384-well intermediate plate using an Echo 550 liquid handler. 30 μL/well of RPMI medium 1640-GlutaMAX™-I was added to the intermediate plate and the contents of the intermediate plate (10 μL/well) were then transferred to the 384-well collagen coated cell culture plate, which was incubated at 37° C., 5% CO2 for 2 hours. After removal of medium from the collagen coated cell culture plate, cells were lysed in lysis buffer from Alpha SureFire® Ultra™ Multiplex p-ERK and total ERK assay kit (PerkinElmer MPSU-PTERK) containing Halt™ Protease and Phosphatase inhibitor cocktail (ThermoFisher Scientific 78446) at room temperature with constant shaking at 300 rpm for 30 minutes. The cell lysates were then transferred to an OptiPlate-384 plate (PerkinElmer 6005620), and the phosphorylation of ERK (p-ERK) and total ERK levels were detected by Alpha SureFire® Ultra™ Multiplex p-EEK kit and total ERK assay kit (PerkinElmer MPSU-PTERK) following the manufacturer's protocol. Assay plates were read on a EnVision Multimode Plate Reader (PerkinElmer), and the ratio of p-ERK vs. total ERK in each well was used as the final readout. Dose response curves were analyzed using a 4-parameter logistic model to calculate IC50 values using Spotfire software.

KRAS WT = KRAS WT (Homo sapiens, UniProt P01116); assay: SOS-catalyzed nucleotide exchange assay, KRAS WT (Procedure A); assay type: biochemical; conditions: GNE
Sequence of KRAS WT (P01116 with tags, fused parts or gaps isoform P01116-2): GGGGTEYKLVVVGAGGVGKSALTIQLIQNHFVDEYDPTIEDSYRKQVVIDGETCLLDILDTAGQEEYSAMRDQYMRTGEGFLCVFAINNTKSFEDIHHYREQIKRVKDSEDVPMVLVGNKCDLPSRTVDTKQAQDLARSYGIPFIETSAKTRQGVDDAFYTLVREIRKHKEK
Description: (§1) Procedure for SOS-Catalyzed Nucleotide Exchange Assay for KRAS-WT, G12C/D/V, G13D, HRAS, and NRAS (Procedure A)
(§2) Recombinant KRAS-G12C protein used in this assay has an additional triple mutation (C51S/C80L/C118S). Whereas KRAS-WT, G12D/V, G13D, HRAS and NRAS are in context of their WT protein sequence background. Specifically, the SOS-catalyzed nucleotide exchange assay utilizes a preformed TR-FRET complex containing a specific biotinylated RAS protein (KRAS-WT, G12C/V/D, G13D, HRAS, NRAS; described above) with Bodipy-GDP, and Terbium-streptavidin. Compounds are preincubated with this complex for 60 minutes. Subsequently, recombinant human SOS protein and unlabeled GTP are added to initiate the exchange reaction. Small molecule inhibitors stabilize the Bodipy-GDP complex whereas the untreated protein rapidly exchanges Bodipy-GDP for unlabeled GTP resulting in reduced TR-FRET signal.
(§3) To assemble the preformed TR-FRET complexes, each biotinylated RAS protein is diluted to 2 μM in an EDTA Buffer (20 mM HEPES pH 7.5, 50 mM sodium chloride, 10 mM EDTA, and 0.01% Tween) and incubated at room temperature for one hour. This mixture is then further diluted to 90 nM in an Assay Buffer (20 mM HEPES pH 7.5, 150 mM sodium chloride, 10 mM magnesium chloride, and 0.005% Tween) containing 15 nM of Terbium-Streptavidin (Invitrogen, catalog #PV3577) and 900 nM of Bodipy-GDP (Invitrogen, catalog #G22360) and incubated at room temperature for six hours. It should be noted that this preformed TR-FRET complex for each of the RAS protein were made ahead of time, aliquoted and stored at −80° C. until the day of the experiment.
(§4) Each test compound (10 mM stock in DMSO) is diluted in DMSO to make a final-10-point, 3-fold dilution and is acoustically dispensed into a 384-well assay plate (Corning, catalog #3820) using an Echo 550 (Labcyte). Each well of the assay plate receives 3 μL of a specific 3×RAS preformed TR-FRET complex and 3 μL of Assay Buffer and is incubated at room temperature for 60 minutes (preincubation time). Each well then receives 3 μL of 3× recombinant human SOS protein and GTP (Sigma, G8877) in Assay Buffer and is incubated at room temperature for 30 minutes (G13D), 60 minutes (KRAS WT/G12C/D, H/NRAS) or 90 minutes for G12V. The final reaction in each well of 9 μL consists of 3 mM GTP, specific Ras and SOS proteins in the following concentrations: KRAS-G12C/SOS=3 nM/40 nM, KRAS-WT and G12D/SOS=1 nM/40 nM, KRAS-G12V/SOS=1.25 nM/160 nM, KRAS-G13D/SOS=1.25 nM/0 nM, HRAS and NRAS=1.25 nM/40 nM.
(§5) The time-resolved fluorescence resonance energy transfer (TR-FRET) signal is measured on an Envision (PerkinElmer) plate reader: Excitation filter=340 nm; emission1=495 nm; emission2=520 nm; dichroic mirror=D400/D505; delay time=[…]. The signal of each well is determined as the ratio of the emission at 520 nm to that at 495 nm. Percent effect of each well is determined after normalization to control wells containing DMSO (no effect) or a saturating concentration of inhibitor (max effect). The apparent effect as a function of compound concentration is fit to a four-parameter logistic equation.
(§6) For Example No. 14, nucleotide exchange assays for KRAS G12D, WT, G12C, and G12V were performed according to Procedure B. All the other compounds were tested according to Procedure A.

KRAS G12D = KRAS G12D (Homo sapiens, UniProt P01116, G12D); assay: SOS-catalyzed nucleotide exchange assay, KRAS G12D (Procedure A); assay type: biochemical; conditions: guanine nucleotide exchange (GNE)
Sequence of KRAS G12D (P01116 with tags, fused parts or gaps isoform P01116-2 G12D): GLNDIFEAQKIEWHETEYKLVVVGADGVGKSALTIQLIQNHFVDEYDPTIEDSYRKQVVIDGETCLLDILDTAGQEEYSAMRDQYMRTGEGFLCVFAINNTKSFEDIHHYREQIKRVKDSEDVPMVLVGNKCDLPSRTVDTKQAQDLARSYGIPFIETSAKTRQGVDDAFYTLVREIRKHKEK
Description: as §1, §2, §3, §4, §5, §6

KRAS G12V = KRAS G12V (Homo sapiens, UniProt P01116, G12V); assay: SOS-catalyzed nucleotide exchange assay, KRAS G12V (Procedure A); assay type: biochemical; conditions: GNE
Sequence of KRAS G12V (P01116 with tags, fused parts or gaps isoform P01116-2 G12V): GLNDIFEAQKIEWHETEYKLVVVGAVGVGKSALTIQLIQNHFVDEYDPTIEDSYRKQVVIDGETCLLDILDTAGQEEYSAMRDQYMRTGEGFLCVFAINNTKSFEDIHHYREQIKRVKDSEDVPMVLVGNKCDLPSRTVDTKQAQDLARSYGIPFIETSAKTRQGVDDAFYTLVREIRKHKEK
Description: as §1, §2, §3, §4, §5, §6

T1 sequence (P01116 1-188 isoform P01116-2 G12D): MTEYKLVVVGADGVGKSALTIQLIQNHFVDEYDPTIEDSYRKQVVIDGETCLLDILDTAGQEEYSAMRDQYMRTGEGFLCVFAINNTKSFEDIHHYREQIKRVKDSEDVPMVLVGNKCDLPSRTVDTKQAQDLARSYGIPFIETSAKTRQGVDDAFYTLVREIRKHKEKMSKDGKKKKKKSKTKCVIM

pIC50 (AsPC-1 cells)	pIC50 (KRAS WT)	pIC50 (KRAS G12D)	pIC50 (KRAS G12V)	SMILES
6.28	5.69	8.05	5.67	F[C@H]1CN2CCC[C@@]2(COc2nc(N3C[C@H]4CC[C@@H](C3)N4)c3c(n2)C2(CC2)c2c-3ccnc2-c2c(C3CC3)c(Cl)cc3[nH]ncc23)C1 (single isomer, unassigned) [Ex-115]
6.43	6.11	8.47	6.09	F/C=C1\CN2CCC[C@@]2(COc2nc(N3C[C@H]4CC[C@@H](C3)N4)c3c(n2)C2(CC2)c2c-3ccnc2-c2c(C3CC3)c(Cl)cc3[nH]ncc23)C1 (single isomer, unassigned) [Ex-116]
6.72	6.43	8.62	6.07	Fc1ccc2cc3[nH]ncc3c(-c3nccc4c3C3(CC3)c3nc(OC[C@@]56CCCN5C[C@H](F)C6)nc(N5C[C@H]6CC[C@@H](C5)N6)c3-4)c2c1Cl (single isomer, unassigned) [Ex-117]
< 4.52	–	5.33	–	Cc1cc2[nH]ncc2c(-c2nccc3c2sc2nc(OCCC4CCS(=O)(=O)CC4)nc(N4C[C@H]5CC[C@@H](C4)N5)c23)c1C(F)(F)F [Ex-41, 4-(2-((4-((1R,5S)-3,8-diazabicyclo[3.2.1]octan-3-yl)-8-(6-methyl-5-(trifluoromethyl)-1H-indazol-4-yl)pyrido[4′,3′:4,5]thieno[2,3-d]pyrimidin-2-yl)oxy)ethyl)tetrahydro-2H-thiopyran 1,1-dioxide]
5.19	–	5.51	–	CCOC1(COc2nc(N3C[C@H]4CC[C@@H](C3)N4)c3c(n2)sc2c(-c4c(C(F)(F)F)c(C)cc5[nH]ncc45)nccc23)CCOC1 (stereo partly drawn) [Ex-42, 4-((1R,5S)-3,8-diazabicyclo[3.2.1]octan-3-yl)-2-((3-ethoxytetrahydrofuran-3-yl)methoxy)-8-(6-methyl-5-(trifluoromethyl)-1H-indazol-4-yl)pyrido[4′,3′:4,5]thieno[2,3-d]pyrimidine]
5.17	–	5.66	–	Cc1cc2[nH]ncc2c(-c2nccc3c2sc2nc(OCC45COC(C4)C5)nc(N4C[C@H]5CC[C@@H](C4)N5)c23)c1C(F)(F)F [Ex-43, 2-((2-oxabicyclo[2.1.1]hexan-4-yl)methoxy)-4-((1R,5S)-3,8-diazabicyclo[3.2.1]octan-3-yl)-8-(6-methyl-5-(trifluoromethyl)-1H-indazol-4-yl)pyrido[4′,3′:4,5]thieno[2,3-d]pyrimidine]
5.33	–	5.58	–	COC1(COc2nc(N3C[C@H]4CC[C@@H](C3)N4)c3c(n2)sc2c(-c4c(C(F)(F)F)c(C)cc5[nH]ncc45)nccc23)CCOC1 (stereo partly drawn) [Ex-44, 4-((1R,5S)-3,8-diazabicyclo[3.2.1]octan-3-yl)-2-((3-methoxytetrahydrofuran-3-yl)methoxy)-8-(6-methyl-5-(trifluoromethyl)-1H-indazol-4-yl)pyrido[4′,3′:4,5]thieno[2,3-d]pyrimidine]
5.31	–	5.52	–	Cc1cc2[nH]ncc2c(-c2nccc3c2sc2nc(OC[C@H]4C[C@H](C#N)C4)nc(N4C[C@H]5CC[C@@H](C4)N5)c23)c1C(F)(F)F [Ex-45, (1R,3r)-3-(((4-((1R,5S)-3,8-diazabicyclo[3.2.1]octan-3-yl)-8-(6-methyl-5-(trifluoromethyl)-1H-indazol-4-yl)pyrido[4′,3′:4,5]thieno[2,3-d]pyrimidin-2-yl)oxy)methyl)cyclobutane-1-carbonitrile]
4.90	–	5.55	–	Cc1cc2[nH]ncc2c(-c2nccc3c2sc2nc(OCC4(C)CCCO4)nc(N4C[C@H]5CC[C@@H](C4)N5)c23)c1C(F)(F)F (stereo partly drawn) [Ex-46, 4-((1R,5S)-3,8-diazabicyclo[3.2.1]octan-3-yl)-8-(6-methy1-5-(trifluoromethyl)-1H-indazol-4-yl)-2-((2-methyltetrahydrofuran-2-yl)methoxy)pyrido[4′,3′:4,5]thi-eno[2,3-d]pyrimidine]
4.95	–	5.50	–	Cc1cc2[nH]ncc2c(-c2nccc3c2sc2nc(OC[C@H]4CCCO4)nc(N4C[C@H]5CC[C@@H](C4)N5)c23)c1C(F)(F)F [Ex-47, 4-((1R,5S)-3,8-diazabicyclo[3.2.1]octan-3-yl)-8-(6-methyl-5-(trifluoromethyl)-1H-indazol-4-yl)-2-(((R)-tetrahydrofuran-2-yl)methoxy)pyrido[4′,3′:4,5]thi-eno[2,3-d]pyrimidine]
4.83	–	5.48	–	Cc1cc2[nH]ncc2c(-c2nccc3c2sc2nc(OCC4COC(C)(C)CO4)nc(N4C[C@H]5CC[C@@H](C4)N5)c23)c1C(F)(F)F (stereo partly drawn) [Ex-48, 4-((1R,5S)-3,8-diazabicyclo[3.2.1]octan-3-yl)-2-((5,5-dimethy1-1,4-dioxan-2-yl)methoxy)-8-(6-methy1-5-(trifluoromethyl)-1H-indazol-4-yl)pyrido[4′,3′:4,5]thieno[2,3-d]pyrimidine]
5.22	–	5.84	–	Cc1cc2[nH]ncc2c(-c2nccc3c2sc2nc(OCC4(C#N)CCOC4)nc(N4C[C@H]5CC[C@@H](C4)N5)c23)c1C(F)(F)F (stereo partly drawn) [Ex-49, 3-(((4-((1R,5S)-3,8-diazabicyclo[3.2.1]octan-3-yl)-8-(6-methyl-5-(trifluoromethyl)-1H-indazol-4-yl)pyrido[4′,3′:4,5]thieno[2,3-d]pyrimidin-2-yl)oxy)methyl)tetrahydrofuran-3-carbonitrile]
< 4.52	–	5.62	–	Cc1cc2[nH]ncc2c(-c2nccc3c2sc2nc(OCC4CCCN(S(C)(=O)=O)C4)nc(N4C[C@H]5CC[C@@H](C4)N5)c23)c1C(F)(F)F (stereo partly drawn) [Ex-50, 4-((1R,5S)-3,8-diazabicyclo[3.2.1]octan-3-yl)-8-(6-methyl-5-(trifluoromethyl)-1H-indazol-4-yl)-2-((1-(methylsulfonyl)piperidin-3-yl)methoxy)pyrido[4′,3′:4,5]thi-eno[2,3-d]pyrimidine]

Source: patent US20260347372A1, “SMALL MOLECULE INHIBITORS OF KRAS G12D MUTANT” (MERCK SHARP & DOHME LLC, priority 2023, published 2026)
